Assay results as given in ChEMBL document CHEMBL3044666, “Synthesis, biological evaluation and molecular modeling studies of Schiff bases derived from 4-methylsalicylic acid as potential immunosuppressive agents” (Med Chem Res, 2013).

Experiments:
[1] = Selectivity index, ratio of CC50 for BALB/C Mus musculus (mouse) lymph node cells to IC50 for conA-induced BALB/C lymph node cells; format: functional
[2] = Immunosuppressive activity in BALB/C Mus musculus (mouse) lymph node cells assessed as inhibition of conA-induced proliferation incubated at 24 hr post conA-challenge measured after 72 hr by MTT assay; format: functional
[3] = Cytotoxicity against BALB/C Mus musculus (mouse) lymph node cells after 24 hr by MTT assay; format: cell-based
[4] = molecular target: Phosphatidylinositol 4,5-bisphosphate 3-kinase catalytic subunit gamma isoform (Homo sapiens, UniProt P48736); experiment: Inhibition of PI3Kgamma (unknown origin) using [33gammaP]ATP and phosphotidylinositol as substrate by scintillation proximity assay
Mus musculus [5] = species on record: Mus musculus; experiment: Induction of apoptosis in ConA-induced BALB/C Mus musculus (mouse) lymph node cells after 24 hr by AnnexinV-FITC based flow cytometric analysis; format: functional
[6] = molecular target: Phosphatidylinositol 4,5-bisphosphate 3-kinase catalytic subunit gamma isoform (Mus musculus) (UniProt Q9JHG7); experiment: Inhibition of PI3Kgamma-mediated AKT Ser473 phosphorylation in ConA-induced BALB/C Mus musculus (mouse) lymph node cells after 24 hr by Western blot analysis
[7] = Ratio of CsA CC50 to compound CC50 for BALB/C Mus musculus (mouse) lymph node cells; format: ADME
Mus musculus [8] = species on record: Mus musculus; experiment: Induction of apoptosis in ConA-induced BALB/C Mus musculus (mouse) lymph node cells assessed as caspase3 activation after 24 hr by Western blot analysis; format: functional

Chain of Phosphatidylinositol 4,5-bisphosphate 3-kinase catalytic subunit gamma isoform (P48736 whole entry, canonical isoform): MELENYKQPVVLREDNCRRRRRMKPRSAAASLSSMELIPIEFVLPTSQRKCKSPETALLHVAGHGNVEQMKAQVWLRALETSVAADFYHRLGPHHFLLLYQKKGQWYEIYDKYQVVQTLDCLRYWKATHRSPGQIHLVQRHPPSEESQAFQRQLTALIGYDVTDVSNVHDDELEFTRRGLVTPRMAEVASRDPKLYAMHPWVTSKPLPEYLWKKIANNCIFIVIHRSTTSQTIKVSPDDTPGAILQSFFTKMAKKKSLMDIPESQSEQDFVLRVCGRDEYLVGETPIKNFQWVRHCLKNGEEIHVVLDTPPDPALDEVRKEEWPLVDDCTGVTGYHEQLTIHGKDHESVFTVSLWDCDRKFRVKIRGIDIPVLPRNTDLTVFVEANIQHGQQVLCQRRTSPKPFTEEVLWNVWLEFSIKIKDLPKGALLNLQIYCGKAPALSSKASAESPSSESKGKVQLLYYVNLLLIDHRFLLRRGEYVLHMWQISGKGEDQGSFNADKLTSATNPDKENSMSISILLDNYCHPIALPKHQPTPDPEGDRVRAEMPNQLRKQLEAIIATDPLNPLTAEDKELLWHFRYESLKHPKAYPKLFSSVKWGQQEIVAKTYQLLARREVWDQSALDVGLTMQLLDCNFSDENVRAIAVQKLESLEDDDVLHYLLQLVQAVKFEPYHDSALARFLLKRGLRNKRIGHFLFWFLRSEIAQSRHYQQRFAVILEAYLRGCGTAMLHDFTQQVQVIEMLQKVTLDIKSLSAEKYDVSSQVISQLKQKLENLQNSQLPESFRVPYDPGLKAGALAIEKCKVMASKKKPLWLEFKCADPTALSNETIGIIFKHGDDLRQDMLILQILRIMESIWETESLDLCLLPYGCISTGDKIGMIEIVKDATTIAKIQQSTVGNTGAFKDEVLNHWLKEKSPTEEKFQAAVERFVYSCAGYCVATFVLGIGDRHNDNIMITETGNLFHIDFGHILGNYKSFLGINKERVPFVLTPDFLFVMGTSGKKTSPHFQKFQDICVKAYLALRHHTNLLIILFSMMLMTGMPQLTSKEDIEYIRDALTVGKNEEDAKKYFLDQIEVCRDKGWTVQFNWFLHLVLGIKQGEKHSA
Chain of Phosphatidylinositol 4,5-bisphosphate 3-kinase catalytic subunit gamma isoform (Mus musculus) (Q9JHG7 whole entry, looked up, canonical isoform): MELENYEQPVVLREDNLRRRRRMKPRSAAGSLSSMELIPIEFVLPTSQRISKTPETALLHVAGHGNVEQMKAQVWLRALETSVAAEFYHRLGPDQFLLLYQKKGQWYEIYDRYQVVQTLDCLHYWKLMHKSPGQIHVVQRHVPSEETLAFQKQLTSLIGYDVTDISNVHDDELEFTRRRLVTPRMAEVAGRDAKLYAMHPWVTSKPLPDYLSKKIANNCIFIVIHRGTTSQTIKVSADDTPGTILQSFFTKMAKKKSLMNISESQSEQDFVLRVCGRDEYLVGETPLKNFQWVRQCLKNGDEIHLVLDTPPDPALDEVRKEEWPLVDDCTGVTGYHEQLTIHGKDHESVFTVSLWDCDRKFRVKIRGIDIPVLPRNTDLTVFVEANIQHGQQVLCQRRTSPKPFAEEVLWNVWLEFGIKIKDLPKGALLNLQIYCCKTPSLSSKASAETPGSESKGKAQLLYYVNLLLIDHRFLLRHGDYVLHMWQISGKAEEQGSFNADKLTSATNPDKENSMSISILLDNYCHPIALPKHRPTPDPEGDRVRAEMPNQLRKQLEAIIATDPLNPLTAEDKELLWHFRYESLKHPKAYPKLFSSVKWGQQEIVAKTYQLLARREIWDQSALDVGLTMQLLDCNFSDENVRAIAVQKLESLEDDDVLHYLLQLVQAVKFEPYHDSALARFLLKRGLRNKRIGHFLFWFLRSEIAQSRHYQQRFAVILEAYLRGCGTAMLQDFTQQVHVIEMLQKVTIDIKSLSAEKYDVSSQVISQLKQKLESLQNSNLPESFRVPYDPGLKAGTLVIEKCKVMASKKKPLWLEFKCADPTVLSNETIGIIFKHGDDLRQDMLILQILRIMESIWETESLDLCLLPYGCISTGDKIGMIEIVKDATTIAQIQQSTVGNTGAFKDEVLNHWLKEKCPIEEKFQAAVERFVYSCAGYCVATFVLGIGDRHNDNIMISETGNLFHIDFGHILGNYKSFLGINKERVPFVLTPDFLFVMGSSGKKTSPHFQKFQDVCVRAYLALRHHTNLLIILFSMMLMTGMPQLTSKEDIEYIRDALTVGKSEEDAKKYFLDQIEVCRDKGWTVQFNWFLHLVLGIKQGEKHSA

IC50 [4] [µM] | inhibition [6] | Compound | Ratio CC50/IC50 [1] | IC50 [2] [µM] | CC50 at 24 h [3] [µM] | Activity (Mus musculus [5]) | selectivity ratio [7] | Activity (Mus musculus [8])
7.12 | – | Cc1ccc(C(=O)N/N=C/c2cc(Br)cc(Br)c2O)c(O)c1 | 484.63 | 2.02 | 979 | – | – | –
– | – | Cc1ccc(C(=O)N/N=C/c2ccccc2Cl)c(O)c1 | 6.51 | 19.2 | 125 | – | – | –
4.81 | – | Cc1ccc(C(=O)N/N=C/c2cc(Cl)cc(Cl)c2O)c(O)c1 | 468.72 | 1.51 | 708 | Dose-dependent effect | – | –
– | – | Cc1ccc(C(=O)N/N=C/c2ccc(N(C)C)cc2)c(O)c1 | <7.32 | > 100 | 732 | – | – | –
– | – | Cc1ccc(C(=O)N/N=C/c2ccc(Cl)cc2Cl)c(O)c1 | 29.79 | 9.78 | 291 | – | – | –
– | – | Cc1ccc(C(=O)N/N=C/c2cccc(Cl)c2)c(O)c1 | 30.89 | 24.4 | 636 | – | – | –
3.69 | – | Cc1ccc(C(=O)N/N=C/c2cc(Cl)ccc2O)c(O)c1 | 433.84 | 1.29 | 560 | – | – | –
– | – | Cc1ccc(C(=O)N/N=C/c2ccc([N+](=O)[O-])cc2)c(O)c1 | 30.23 | 24.3 | 734 | – | – | –
2.6 | – | Cc1ccc(C(=O)N/N=C/c2cc(Br)ccc2O)c(O)c1 | 1371.95 | 1.09 | 1500 | – | – | –
– | – | Cc1ccc(C(=O)N/N=C/c2cccc(F)c2)c(O)c1 | 3.72 | 31.2 | 166 | – | – | –
– | – | Cc1ccc(C(=O)N/N=C/c2ccc(F)cc2)c(O)c1 | 21.26 | 26.7 | 568 | – | – | –
– | – | Cc1ccc(C(=O)N/N=C/c2ccccc2F)c(O)c1 | 8.61 | 42.1 | 362 | – | – | –
– | – | Cc1ccc(C(=O)N/N=C/c2cccc(Br)c2)c(O)c1 | 4.01 | 28.3 | 113 | – | – | –
2.17 | Dose-dependent effect | Cc1ccc(C(=O)N/N=C/c2ccccc2O)c(O)c1 | 745.65 | 1.02 | 761 | Dose-dependent effect | 50 | Dose-dependent effect
– | – | Cc1ccc(C(=O)N/N=C/c2ccccc2)c(O)c1 | 10.74 | 53.9 | 578 | – | – | –
– | – | COc1cccc(/C=N/NC(=O)c2ccc(C)cc2O)c1 | 32.64 | 20.6 | 672 | – | – | –
– | – | COc1ccc(/C=N/NC(=O)c2ccc(C)cc2O)cc1 | <7.23 | > 100 | 723 | – | – | –
– | – | Cc1ccc(C(=O)N/N=C/c2ccc(Cl)cc2)c(O)c1 | 9.45 | 12.3 | 116 | – | – | –
– | – | Cc1ccc(C(=O)N/N=C/c2ccccc2[N+](=O)[O-])c(O)c1 | <6.44 | > 100 | 644 | – | – | –
